Assay results taken from US7198942B2, “Acetylcholine receptor subunits” (Bayer CropScience LP, priority 2000, dated 2007).

Assays:
[1] = tested on: Untransfected control cells (Sf9); assay: Whole-cell recordings on untransfected Sf9 control cells; format: cell-based, Spodoptera frugiperda; conditions: untransfected Sf9 control cells in the same experiment
Excerpt: Spodoptera frugiperda 9 (Sf9) cells were transfected simultaneously with cDNA expression plasmids which code for the modified heliothis/chicken subunit and for the chicken β2 subunit using a liposomal transfection reagent (DAC-30, Eurogentec, Belgium). A cDNA expression construct for the green fluorescent protein from Aequoria victoria was transfected simultaneously. This makes it possible simply to identify transfected cells because experience has shown that most of the cells which have taken up one of the constructs have also taken up the other ones. 24 to 48 hours after transfection, the currents through the cell membrane of the Sf9 cells were measured by whole-cell recordings. For this purpose, the potential difference across the cell membrane was kept constant at −70 mV. Substances were applied using the U-tube reversed flow technique (Fenwick 1982). […]
To check whether expression of the cDNAs which code for the modified heliothis/chicken subunit shown in SEQ ID NO: 3 and the chicken β2 subunit led to the production of functional acetylcholine receptors in the cells, whole-cell recordings were carried out by the method described above, during which the cells were stimulated with acetylcholine (1000 μM) or imidacloprid (100 μM). […] In order to quantify the results, a series of experiments was carried out with 5 measurements. […]

[2] = tested on: receptors comprising unmodified Heliothis α1 subunits and chicken β2 subunits; assay: Dual electrode voltage clamp on Xenopus oocytes expressing Heliothis α1/chicken β2 receptors; format: cell-based, Heliothis virescens / chicken; conditions: membrane voltage −80 mV, FIG. 2C
Method: (§1) Xenopus oocytes were isolated and prepared as previously described (Bertrand et al. 1991). On the first day after isolation of the oocytes, in each case 10 nl of a solution with 2 ng of an appropriate cDNA expression vector were injected into the cell nuclei of the oocytes. The oocytes were kept at 19° C. in a suitable medium (BARTH solution consisting (in mM) of NaCl 88, KCl 1, NaHCO3 2.4, MgSO4 0.82, Ca(NO3)2 0.33, CaCl2 0.41, HEPES 10, pH 7.4) for 3–5 days. After this time, the electrophysiological experiments were carried out.
Electrophysiological recordings were carried out using a dual electrode voltage clamp by tried and tested methods which are well known (compare Bertrand et al. 1992). Each oocyte was placed singly in a measurement chamber and pierced by two microelectrodes. […] The membrane voltage was fixed at −80 mV using a voltage clamp amplifier (TEC-00, npi, Tamm, Germany), and the inward current flowing through the cell membrane was measured and recorded by computer. […]
(§2) In order to characterize the sensitivity of the modified receptors to acetylcholine and imidacloprid in more detail, dose-effect plots were recorded by repeating the experiment described above with different concentrations of the substance.

[3] = biological target: T1, receptors consisting of the chicken β2 subunit and polypeptide according to SEQ ID NO: 11 (Gallus gallus, UniProt P09482+P09484, A209V/D197E/E200T/E219T/G202V/G211A/I207L/I224P/K217F/L196S/N208E/N212V/P226L/Q195L/S215E/S231N/T222D/V205D/V210P/W199Y/Y198F/Y213R/Y230F); format: cell-based, Heliothis virescens / chicken; conditions: Xenopus oocytes, membrane voltage −80 mV
T1 construct: expressed in transfected cells; host or cells: Xenopus oocytes (nuclear injection of cDNA expression vectors)
Method: as §1
(§3) Electrophysiological recordings were carried out using a dual electrode voltage clamp by tried and tested methods which are well known (compare Bertrand et al. 1992). Each oocyte was placed singly in a measurement chamber and pierced by two microelectrodes. […] The membrane voltage was fixed at −80 mV using a voltage clamp amplifier (TEC-00, npi, Tamm, Germany), and the inward current flowing through the cell membrane was measured and recorded by computer. Frog Ringer solution containing 115 mM NaCl; 2.5 mM KCl; 1.8 mM CaCl2; 10 mM HEPES; at pH 7.4 (adjusted with NaOH) flowed at a flow rate of 5–10 ml/minute through the measurement chamber. In order to test acetylcholine, imidacloprid or another active substance on these oocytes, the substance was added in the intended concentration to the frog Ringer solution and the perfusion of the measurement chamber was briefly changed over to this test solution. Acetylcholine (Fluka, Buchs, Switzerland) was stored as stock solution at −20° C. and added to the measurement solution immediately before the experiment.
(§4) In this case it is immediately evident from the occurrence of an additional inward current signal whether the receptor variant expressed in the particular oocyte can be activated by imidacloprid or not.
as §2

[4] = biological target: T2, receptors consisting of the chicken β2 subunit and polypeptide according to SEQ ID NO: 3 (Gallus gallus, UniProt P09482+P09484, A129E/D127N/D141T/F139N/F162Y/H132L/H137T/I144V/K145E/K171V/L133A/M147R/N169T/S157E/T161E); format: cell-based, Heliothis virescens / chicken; conditions: Xenopus oocytes, membrane voltage −80 mV, FIG. 2A
T2 construct: expressed in transfected cells; host or cells: Xenopus oocytes (nuclear injection of cDNA expression vectors)
Method: as §1, §3, §4, §2

[5] = biological target: T3, receptors consisting of the chicken β2 subunit and polypeptide according to SEQ ID NO: 7 (Gallus gallus, UniProt P09482+P09484, INS192RGTNVVELG); format: cell-based, Heliothis virescens / chicken; conditions: Xenopus oocytes, membrane voltage −80 mV
T3 construct: expressed in transfected cells; host or cells: Xenopus oocytes (nuclear injection of cDNA expression vectors)
Method: as §1, §3, §4, §2

[6] = biological target: T4, receptor containing polypeptide shown in SEQ ID NO: 3 and the chicken β2 subunit (Gallus gallus, UniProt P09482+P09484, A129E/D127N/D141T/F139N/F162Y/H132L/H137T/I144V/K145E/K171V/L133A/M147R/N169T/S157E/T161E); assay: Whole-cell recordings on transfected Sf9 cells, SEQ ID NO: 3/chicken β2; format: cell-based, Heliothis virescens / chicken; conditions: −70 mV
T4 construct: expressed in transfected cells; host or cells: Spodoptera frugiperda Sf9 cells (transient, DAC-30; GFP co-transfected as a marker)
Excerpt: Spodoptera frugiperda 9 (Sf9) cells were transfected simultaneously with cDNA expression plasmids which code for the modified heliothis/chicken subunit and for the chicken β2 subunit using a liposomal transfection reagent (DAC-30, Eurogentec, Belgium). A cDNA expression construct for the green fluorescent protein from Aequoria victoria was transfected simultaneously. This makes it possible simply to identify transfected cells because experience has shown that most of the cells which have taken up one of the constructs have also taken up the other ones. 24 to 48 hours after transfection, the currents through the cell membrane of the Sf9 cells were measured by whole-cell recordings. For this purpose, the potential difference across the cell membrane was kept constant at −70 mV. Substances were applied using the U-tube reversed flow technique (Fenwick 1982). The volume of the experimental chamber, which was continuously perfused with bath solution (3 ml/min), was less than 0.5 ml. […] The pipette solution contained (in mM): 150 KCl, 10 HEPES 10 K-EGTA (pH 7.2). The microelectrodes were produced in an electrode puller (Zeitz, Germany) from borosilicate glass blanks (external diameter 1.6 mm, Hilgenberg, Germany). The resistance of the flame-polished microelectrodes on use of the abovementioned pipette and bath solutions was between 4 and 6 MΩ. […]

[7] = biological target: chicken α4 subunit and the chicken β2 subunit (Gallus gallus, UniProt P09482+P09484); assay: Whole-cell recordings on transfected Sf9 cells, chicken α4/β2; format: cell-based; conditions: −70 mV

`CC(=O)OCC[N+](C)(C)C` [acetylcholine] was tested, and the “response (inward current)” value [1] was “no response”.
In the case of `O=[N+]([O-])NC1=NCCN1Cc1ccc(Cl)nc1` [imidacloprid], the “sensitivity (ligand-induced conductance)” value [2] is reported as “sensitive”, the “ligand-induced conductance / sensitivity” value [3] is reported as “only the receptors consisting of the chicken β2 subunit and polypeptides according to SEQ ID NO: 3 are sensitive to imidacloprid” and the “ligand-induced conductance / sensitivity” value [4] is reported as “sensitive”. The “ligand-induced conductance / sensitivity” value [5] was “only the receptors consisting of the chicken β2 subunit and polypeptides according to SEQ ID NO: 3 are sensitive to imidacloprid”, the “inward currents after stimulus” value ([6]; 100 μM imidacloprid, FIG. 3) was “strong inward currents” and the “amplitude ratio (maximum amplitude on 100 μM imidacloprid divided by maximum amplitude on 1000 μM acetylcholine)” value ([6]; n=5 cells) was 0.46±0.09. The “inward currents on application” value ([7]; 100 μM imidacloprid) was “either no or only very weak inward currents”, the “amplitude ratio (maximum amplitude on 100 μM imidacloprid divided by maximum amplitude on 1000 μM acetylcholine)” value ([7]; n=5 cells) was 0.05±0.06 and the “response (inward current)” value [1] was “no response”.
